In PubChem BioAssay AID2060618 (Molecular Pharmacology Branch, DTP, NCI, 2025):

Tested on: 454973-116-R2-J3-PDC spheroids, percent test/control viability
Assay: Anticancer human tumor 454973-116-R2-J3-PDC patient-derived pancreatic carcinoma cell line growth inhibition [CLK]
Conditions: spheroids with HUVEC and MSC; for IC50: curve of first compound; for viability, T/C: stronger effect = lower value
How it was run: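 Multi-cell-type spheroids combined patient-derived tumor cells with HUVEC endothelial cells and human mesenchymal stem cells. Paired agents were dosed in half-log steps down from about clinical Cmax, or from 10 microM where Cmax was unknown.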

[1] = second compound 0.0316 µM, first compound 0.0316 µM
[2] = second compound 0.0316 µM, first compound 0.1 µM
[3] = second compound 0.0316 µM, first compound 0.316 µM
[4] = second compound 0.0316 µM, first compound 1 µM
[5] = second compound 0.0316 µM, first compound 3.16 µM
[6] = second compound 0.0316 µM, first compound 10 µM
[7] = second compound 0.1 µM, first compound 0.0316 µM
[8] = second compound 0.1 µM, first compound 0.1 µM
[9] = second compound 0.1 µM, first compound 0.316 µM
[10] = second compound 0.1 µM, first compound 1 µM
[11] = second compound 0.1 µM, first compound 3.16 µM
[12] = second compound 0.1 µM, first compound 10 µM
[13] = second compound 0.316 µM, first compound 0.0316 µM
[14] = second compound 0.316 µM, first compound 0.1 µM
[15] = second compound 0.316 µM, first compound 0.316 µM
[16] = second compound 0.316 µM, first compound 1 µM
[17] = second compound 0.316 µM, first compound 3.16 µM
[18] = second compound 0.316 µM, first compound 10 µM
[19] = second compound 1 µM, first compound 0.0316 µM
[20] = second compound 1 µM, first compound 0.1 µM
[21] = second compound 1 µM, first compound 0.316 µM
[22] = second compound 1 µM, first compound 1 µM
[23] = second compound 1 µM, first compound 3.16 µM
[24] = second compound 1 µM, first compound 10 µM
[25] = second compound 3.16 µM, first compound 0.0316 µM
[26] = second compound 3.16 µM, first compound 0.1 µM
[27] = second compound 3.16 µM, first compound 0.316 µM
[28] = second compound 3.16 µM, first compound 1 µM
[29] = second compound 3.16 µM, first compound 3.16 µM
[30] = second compound 3.16 µM, first compound 10 µM
[31] = second compound 10 µM, first compound 0.0316 µM
[32] = second compound 10 µM, first compound 0.1 µM
[33] = second compound 10 µM, first compound 0.316 µM
[34] = second compound 10 µM, first compound 1 µM
[35] = second compound 10 µM, first compound 3.16 µM
[36] = second compound 10 µM, first compound 10 µM
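Further: spheroids exposed to compounds for 7 days before readout.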

Compound C#Cc1c(F)ccc2cc(O)cc(-c3ncc4c(N5CC6CCC(C5)N6)nc(OCC56CCCN5CC(F)C6)nc4c3F)c12 (stereo unspecified) + CNC(=O)c1ccc(Nc2nc(OC3CCCC3)c3c(-c4ccc5nc(C)oc5c4)c[nH]c3n2)c(OC)c1 has an IC50 (second compound 0.0316 µM) of 40.1 nM, an IC50 (second compound 0.1 µM) of 35 nM and an IC50 (second compound 0.316 µM) of less than 31.6 nM. The IC50 (second compound 1 µM) was less than 31.6 nM, the IC50 (second compound 3.16 µM) was less than 31.6 nM and the IC50 (second compound 10 µM) was less than 31.6 nM. The viability, T/C [1] was 52.8%, the viability, T/C [2] was 41.1% and the viability, T/C [3] was 32.7%. It also gave a viability, T/C [4] of 32.5%, a viability, T/C [5] of 29.4% and a viability, T/C [6] of 22.4%. It also gave a viability, T/C [7] of 50.7%, a viability, T/C [8] of 43.8% and a viability, T/C [9] of 33.5%. The viability, T/C [10] was 27.5%, the viability, T/C [11] was 26% and the viability, T/C [12] was 15.1%. The viability, T/C [13] was 37.8%, the viability, T/C [14] was 30.9% and the viability, T/C [15] was 19.4%. The viability, T/C [16] was 12.7%, the viability, T/C [17] was 13.8% and the viability, T/C [18] was 12.1%. For the same compound, the viability, T/C [19] was 16.7%, the viability, T/C [20] was 12.7% and the viability, T/C [21] was 12.2%. The viability, T/C [22] was 12.7%, the viability, T/C [23] was 10.9% and the viability, T/C [24] was 7.84%. It also gave a viability, T/C [25] of 15.9%, a viability, T/C [26] of 12.7% and a viability, T/C [27] of 11.3%. For the same compound, the viability, T/C [28] was 11.3%, the viability, T/C [29] was 9.18% and the viability, T/C [30] was 6.34%. It also gave a viability, T/C [31] of 17.9%, a viability, T/C [32] of 12.4% and a viability, T/C [33] of 11.5%. It also gave a viability, T/C [34] of 12%, a viability, T/C [35] of 10.3% and a viability, T/C [36] of 5.25%.

C=C(F)C(=O)N1CCN(c2nc(OCC3CCCN3C)nc3c2CCN(c2cccc4cccc(Cl)c24)C3)CC1CC#N (stereo unspecified) + CNC(=O)c1ccc(Nc2nc(OC3CCCC3)c3c(-c4ccc5nc(C)oc5c4)c[nH]c3n2)c(OC)c1 was tested, and the IC50 (second compound 0.0316 µM) was 5840 nM, the IC50 (second compound 0.1 µM) was 4820 nM and the IC50 (second compound 0.316 µM) was less than 31.6 nM. It also gave an IC50 (second compound 1 µM) of less than 31.6 nM, an IC50 (second compound 3.16 µM) of less than 31.6 nM and an IC50 (second compound 10 µM) of less than 31.6 nM. For the same compound, the viability, T/C [1] was 111%, the viability, T/C [2] was 114% and the viability, T/C [3] was 109%. The viability, T/C [4] was 109%, the viability, T/C [5] was 106% and the viability, T/C [6] was 1.38%. It also gave a viability, T/C [7] of 96.9%, a viability, T/C [8] of 85% and a viability, T/C [9] of 75.7%. For the same compound, the viability, T/C [10] was 89.8%, the viability, T/C [11] was 78.3% and the viability, T/C [12] was 0.85%. For the same compound, the viability, T/C [13] was 39.6%, the viability, T/C [14] was 36.1% and the viability, T/C [15] was 38.2%. The viability, T/C [16] was 37.2%, the viability, T/C [17] was 39.5% and the viability, T/C [18] was 0.19%. For the same compound, the viability, T/C [19] was 35.2%, the viability, T/C [20] was 27.1% and the viability, T/C [21] was 30.4%. For the same compound, the viability, T/C [22] was 36.5%, the viability, T/C [23] was 31.1% and the viability, T/C [24] was 0.5%. It also gave a viability, T/C [25] of 29.8%, a viability, T/C [26] of 27.9% and a viability, T/C [27] of 28.5%. The viability, T/C [28] was 34.6%, the viability, T/C [29] was 27.2% and the viability, T/C [30] was 0.29%. For the same compound, the viability, T/C [31] was 28.2%, the viability, T/C [32] was 24.4% and the viability, T/C [33] was 26.5%. It also gave a viability, T/C [34] of 25.3%, a viability, T/C [35] of 19.2% and a viability, T/C [36] of 0.25%.

Compound CC(CO)NC(=O)c1cc(-c2ccc(Cl)cc2)nn(-c2cnn(C)c2)c1=O (stereo unspecified) + CNC(=O)c1ccc(Nc2nc(OC3CCCC3)c3c(-c4ccc5nc(C)oc5c4)c[nH]c3n2)c(OC)c1 has an IC50 (second compound 0.0316 µM) greater than 10000 nM, an IC50 (second compound 0.1 µM) greater than 10000 nM and an IC50 (second compound 0.316 µM) of less than 31.6 nM. It also gave an IC50 (second compound 1 µM) of less than 31.6 nM, an IC50 (second compound 3.16 µM) of less than 31.6 nM and an IC50 (second compound 10 µM) of less than 31.6 nM. For the same compound, the viability, T/C [1] was 105%, the viability, T/C [2] was 96.5% and the viability, T/C [3] was 111%. It also gave a viability, T/C [4] of 112%, a viability, T/C [5] of 100% and a viability, T/C [6] of 77%. The viability, T/C [7] was 105%, the viability, T/C [8] was 105% and the viability, T/C [9] was 96.2%. It also gave a viability, T/C [10] of 99.7%, a viability, T/C [11] of 101% and a viability, T/C [12] of 80.8%. It also gave a viability, T/C [13] of 46%, a viability, T/C [14] of 41.3% and a viability, T/C [15] of 47.2%. The viability, T/C [16] was 37.1%, the viability, T/C [17] was 45.2% and the viability, T/C [18] was 43.5%. For the same compound, the viability, T/C [19] was 33.7%, the viability, T/C [20] was 32.9% and the viability, T/C [21] was 32.8%. It also gave a viability, T/C [22] of 31.6%, a viability, T/C [23] of 30.8% and a viability, T/C [24] of 32.1%. For the same compound, the viability, T/C [25] was 24.5%, the viability, T/C [26] was 31.7% and the viability, T/C [27] was 30.2%. It also gave a viability, T/C [28] of 30.5%, a viability, T/C [29] of 34.9% and a viability, T/C [30] of 29%. For the same compound, the viability, T/C [31] was 30.3%, the viability, T/C [32] was 31.7% and the viability, T/C [33] was 31.8%. It also gave a viability, T/C [34] of 27.6%, a viability, T/C [35] of 29.3% and a viability, T/C [36] of 24.7%.
